# Reference: Sander's compilation of Henry's law constants (doi:10.1584/jpestics.18.3_201)
# Assay: Henry solubility constant Hcp at 298.15 K (mol/(m3 Pa))
# Conditions: reference: Watanabe (1993)
row,Structure (SMILES),Henry solubility constant Hcp
1,CCN(CC)C(=O)SCc1ccc(Cl)cc1 [S-(4-chlorobenzyl) diethylthiocarbamate],19
2,CCCCOCN(C(=O)CCl)c1c(CC)cccc1CC [butachlor],160
3,CC(C)OC(=O)Nc1cccc(Cl)c1 [chlorpropham],23
4,CCOP(=S)(OCC)Oc1cc(C)nc(C(C)C)n1 [diazinon],11
5,COP(=S)(OC)Oc1ccc([N+](=O)[O-])c(C)c1 [fenitrothion],83
6,CCC(C)c1ccccc1OC(=O)NC (stereo not given) [fenobucarb],150
7,CC(C)OP(=O)(OC(C)C)SCc1ccccc1 [iprobenphos],260
8,CCOC(=O)CC(SP(=S)(OC)OC)C(=O)OCC (stereo not given) [malathion],670
9,CCCN(CCC)c1c([N+](=O)[O-])cc(C(F)(F)F)cc1[N+](=O)[O-] [trifluralin],0.91
10,CNC(=O)Oc1ccc(C)c(C)c1 [xylylcarb],91
